PubChem BioAssay (NCI)
Where “and” joins values, the source holds several entries; their conditions need not be identical. Identical values can stand only once.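 48-hour exposure; five concentrations; linearly interpolated endpoints. At the GI50, growth is halved. Definition used: TGI = concentration required for complete inhibition of growth.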

Columns and labels:
Assay in all cases: NCI tumour cell line growth inhibition, 48 h
[1] = test system: KM12 colon
[2] = test system: HL-60(TB) leukemia
[3] = test system: M14 melanoma
[4] = test system: OVCAR-8 ovarian
[5] = test system: SNB-19 CNS
[6] = test system: TK-10 renal
[7] = test system: CAKI-1 renal
[8] = test system: IGROV1 ovarian
[9] = test system: SNB-75 CNS
[10] = test system: BT-549 breast

| SMILES | GI50 [1] | TGI [1] | GI50 [2] | TGI [2] | GI50 [3] | TGI [3] | GI50 [4] | TGI [4] | GI50 [5] | TGI [5] | GI50 [6] | TGI [6] | GI50 [7] | TGI [7] | GI50 [8] | TGI [8] | GI50 [9] | TGI [9] [nM] | GI50 [10] | TGI [10] |
| --- | --- | --- | --- | --- | --- | --- | --- | --- | --- | --- | --- | --- | --- | --- | --- | --- | --- | --- | --- | --- |
| Nc1nc(=S)c2ncn(C3OC(CO)C(O)C3O)c2[nH]1 (configuration not stated) | 1790 nM | > 27800 nM | 1670 nM | 11000 nM | 304 nM | 3130 nM | 903 nM | > 100000 nM | 33100 nM | > 100000 nM | 633 nM | > 64800 nM | 703 nM | 5880 nM | 3770 nM | > 35500 nM | 688 nM | > 100000 | 2120 nM | > 100000 nM |
| CC(=O)N(C)c1cc(NCc2ccccc2)ccc1OCc1ccccc1 |  | 47400 nM |  | 77900 nM |  | 50500 nM |  | 32700 nM |  | 35800 nM |  | 33500 nM |  | 38600 nM |  | 30500 nM |  | 41500 |  | 40300 nM |
| O=C(Nc1ccc(Oc2ccc(NC(=O)Nc3ccccc3Cl)cc2)cc1)Nc1ccccc1Cl | > 100000 nM | > 100000 nM | 14800 nM | 32400 nM | > 44600 nM | > 100000 nM | 6830 nM | 23600 nM | 17000 nM | 43800 nM | 4720 nM | 45100 nM | > 31900 nM | > 88200 nM | 3570 nM | 14800 nM | 12200 nM | 37300 | 5060 nM | 25000 nM |
| CN(C)c1ccc(/C=C(\C#N)c2ccccc2)cc1 | 307 nM and 425 nM and 437 nM | 21800 nM and > 100000 nM | 218 nM and 340 nM | 11800 nM | 329 nM and 344 nM and 304 nM | > 100000 nM | 610 nM and 2520 nM and 2650 nM | > 100000 nM | 481 nM and 680 nM and 920 nM | > 100000 nM | 553 nM and 999 nM and 4900 nM | > 100000 nM | 244 nM and 586 nM and 591 nM |  | 599 nM and 1810 nM | > 100000 nM | 361 nM and 626 nM and 299 nM | > 100000 | 121 nM and 794 nM and 621 nM |  |
| COc1ccc(C2CC(c3ccccc3)=NN2C(=O)c2cc(OC)c(OC)c(OC)c2)cc1O (configuration not stated) | 371 nM | 24100 nM | 244 nM | 1050 nM | 299 nM | 3990 nM | 659 nM | > 76500 nM | 645 nM | > 100000 nM | 14700 nM | > 100000 nM | 925 nM | > 100000 nM | 498 nM | > 100000 nM | 422 nM | > 100000 | 2000 nM | 21400 nM |
| O=C(/C=C\c1cc(Br)ccc1O)/C=C/c1cc(Br)ccc1O | 1250 nM | 2720 nM | 385 nM | 4260 nM | 651 nM | 3080 nM | 345 nM | 11600 nM | 1030 nM | 2550 nM | 2050 nM | 4030 nM | 938 nM | 3330 nM | 1600 nM | 3620 nM | 1340 nM | 2800 | 897 nM | 3840 nM |
| C=C[C@H]1CN2CCc3c([nH]c4c([C@@H]5CCCN5C)c(O)ccc34)[C@@H]2C[C@@H]1C[C@H]1c2[nH]c3ccccc3c2CCN1C | 1150 nM | 2610 nM and 2990 nM |  | 2060 nM and 1850 nM and 1900 nM | 1250 nM and 211 nM | 2750 nM and 436 nM and 2550 nM |  | 3300 nM and 2960 nM | 1090 nM | 3500 nM and 2330 nM and 3200 nM | 31 nM | 993 nM and 2980 nM and 3440 nM |  | 3000 nM and 3230 nM |  | 2670 nM and 2750 nM |  | 2470 |  | 3270 nM and 2960 nM |
